This is an account of results in paper PMC8512853, “Synthesis, Bioactivity, Pharmacokinetic and Biomimetic Properties of Multi-Substituted Coumarin Derivatives” (Molecules, 2021).

A short description of data set [1]: ABTS radical scavenging assay. The note with it: 6 min. The procedure:
The ABTS radical cation scavenging assay is a decolorization assay frequently used as an antioxidant activity estimation protocol. […] The absorbance is measured at 734 nm and the antioxidant capacity is compared to a standard antioxidant solution, such as ascorbic acid.
For the evaluation of antioxidant activity, the scavenging capacities of all samples were measured via the ABTS assay, as previously described by Kontogiorgis et al. with some modifications. Briefly, an ethanolic standard ABTS solution (7 mM) was prepared by the addition of ABTS salt and potassium persulfate. […] Each sample was diluted in DMSO and tested in triplicate. The tested mixture contained 10–20 µL of sample and 990–980 µL of the ABTS solution, for a total volume of 1 ml. Blank samples contained equal amounts of DMSO instead of the coumarin analogues, and ascorbic acid was used as a reference sample for the final evaluation of the ABTS scavenging capacity. All mixtures were stored at room temperature to allow decolorization and measured after 6 min. The percentage reduction of the ABTS radical was evaluated according to the following Equation (3):(3) % Reduction=Control OD (mean)−Sample OD (mean)/Control OD (mean)×100

Data set [2] relates to HaCaT cells. As to the kind of experiment: DCF-DA assay (intracellular ROS after H2O2). Format: cell-based, human. The note with it: Homo sapiens, 100 μΜ, H2O2 treatment, 24 h, read-out: DCFDA Assay, % (100 μΜ). The source says: In the setting of evaluating bioactive compounds in terms of antioxidant capacity in various cell lines, DCF-DA is the most widely used assay for the detection of intracellular H2O2 and oxidative stress. DCF-DA is cell-permeable and is hydrolyzed intracellularly to the DCFH carboxylate anion, which is retained in the cell.
DCFDA is a fluorescent dye that measures the activity of hydroxyl radicals, peroxyl radicals, and other reactive oxygen species (ROS) within the cell. The DCFDA analysis protocol is based on the diffusion of DCFDA into the cell. It is then deacetylated from cellular esterases to a non-fluorescent compound, which is later oxidized by ROS to 2’,7’ -dichlorofluoroscein (DCF). The produced compound (DCF) is fluorescent and is detected by fluorescence spectroscopy at 485/535 nm (excitation/emission).
For the experimental procedure a standard solution of DCF-DA (20mM) in DMSO was prepared which was stored in the dark (−20 °C) until use. In a 96-well plate, cells were cultured to a density of 3 × 10^4 cells/well.
The cells remained in the incubator (37 °C, 5% CO2) for 24 h, after which an appropriate amount of H2O2 (2 mM) was added and the dish was returned for incubation for the next 2 h. This was followed by the addition of the test substances (100μM) and incubation for 24 h. At the end of the treatment time, all wells were washed with PBS, and DCF-DA solution (working concentration: 10 μM) (in 200 μL of nutrient) was added and incubated for 40 min.
After incubation, the medium with the DCF-DA was removed and replaced with FBS-free DMEM. The measurement of the […] was made immediately after that in a plate reader at 495/530 nm (excitation/emission).
All samples were tested in triplicates, against a control (without effects), blank (without cells), and positive control (standard 100 μM Ascorbic acid solution was used).
The percentage of antioxidant capacity (%) was calculated according to the following Equation (6) evaluating the presence of ROS [42]:(6) % AI=( OD Sample 530 nm−Blank)−(OD Control 530 nm−Blank)/(OD Control 530 nm−Blank) × 100

Data set [3] in a line: MTT cell viability assay, HaCaT. Format: cell-based, human. The following applies: human, HaCaT cells, 100 μΜ, 24 h. The text has this: The MTT assay (3- [4,5-dimethylthiazol-2-yl] -2,5 diphenyl tetrazole) is based on the conversion of MTT to formazan crystals by living cells, which determines mitochondrial activity. Since for most cell populations total mitochondrial activity is related to the number of viable cells, this assay is widely used to measure the in vitro cytotoxic effects of drugs on various cell lines or primary cells. The principle of the MTT assay is that for most viable cells the mitochondrial activity is stable, and therefore, an increase or decrease in the number of viable cells is linearly related to mitochondrial activity. The mitochondrial activity of the cells is reflected by the conversion of the MTT tetrazole salt to formazan crystals (bright purple), which can be solubilized (in this protocol with DMSO) for homogeneous measurement. Thus, any increase or decrease in the number of viable cells can be detected by measuring the formazan concentration reflected in the optical density (OD) measurement at 540 nm with a reference absorption of 720 nm.
All the compounds were tested for their cytotoxic activity against blank and control samples in the human epidermal keratinocyte line (HaCaT), at the concentration of 100 μΜ, and the results are presented in Table 4.
(§1) This protocol was used for the evaluation of cell viability and all the cell lines. It must be noted that this assay describes the count of cells that remain alive after the treatment. For the experimental procedure a standard solution of MTT 1mg/mL in PBS was prepared which after filtration ([…] filter (Millipore, Carrigtwohill, Ireland)) was stored in the dark (4–8 °C) until use. In a 96-well plate, HaCaT, A549 and A375 cells were seeded in a number of 30 × 10^4 cells/well for each evaluation series respectively. The cells were incubated (37 °C, 5% CO2) for 24 h, followed by the addition of the tested analogues (100 μM, diluted in DMEM) and another 24-h incubation. Next, appropriate amount of MTT was added in the tested wells and the plate returned to the incubator for the next 4 h for the formation of the formazan crystals. The formazan crystals were then redissolved by adding DMSO (100 μL) and stirring lightly for 40 min, after which the absorbance was measured in a plate reader at 540 nm with a reference absorbance of 720 nm.
(§2) All samples were tested in triplicate, against a control (only cells), blank (no cells), and positive control (100 μM standard silibinin solution was used as a “cell-killing” standard).

For data set [4], the system named is A549 cells. As to the kind of experiment: MTT cytotoxicity assay, A549. It counts as cell-based, human. The note with it: Homo sapiens; A549, 100 μΜ, 24 h; read-out: Cell Toxicity A549 % (100 μΜ). The procedure:
(§3) Furthermore, the coumarin compounds synthesized in this study were also evaluated for their cytotoxicity against A549 (adenocarcinomic human alveolar basal epithelial cells) and A375 (human melanoma) cell lines.
as §1, §2

Data set [5] has as its system A375 cells. As to the kind of experiment: MTT cytotoxicity assay, A375. Format: cell-based, human. The note with it: Homo sapiens, A-375, 24 h, A375, 100 μΜ, read-out: Cell Toxicity A375 % (100 μΜ). The procedure:
as §3, §1, §2
On the technique in general: Tetrazolium dyes change colour on reduction, which living cells bring about.

The nature of data set [6]: Hydroxyl (HO•) free radical scavenging assay (competition with DMSO). The source says: The hydroxyl (HO^•) free radical is considered as the most toxic and reactive radical among the ROS, leading to cellular or protein damage, membrane destruction, and even to cellular death when encountered in excess concentration. In this context, the evaluation of the hydroxyl radical scavenging activity of the coumarin analogues was essential. Hydroxyl radicals are mainly produced by the Haber–Weiss reaction in the presence of iron or copper ions. In this protocol, iron-EDTA solution, which catalyzes the autooxidation of ascorbic acid, was used as the hydroxyl radical generation system. In general, the hydroxyl radicals formed oxidize the DMSO to form formaldehyde. The reaction involves the initial interaction of DMSO with the hydroxyl radicals to give methyl radicals, with the final product being formaldehyde, which is determined by Nash method. The intensity of the yellow solution formed was measured at 412 nm against a reagent blank.
For the evaluation of hydroxyl radical scavenging ability, the protocol described by Kontogiorgis et al. was used. In short, each sample was tested in quadruplicate (A, B, C, D). For A and B, 10 μL of coumarin analogs diluted in DMSO (100 mM) were added; for C and D were the respective blanks. Standards (containing DMSO solution) and blanks were all prepared in a similar manner; to the latter an equal amount (10 µL) of solvent was added instead of the tested analogues. According to the protocol described by Klein et al., standard solutions of EDTA, FeCl3, ascorbic acid, and buffer solution (pH 7.4) were also added to each of the tested mixtures. All mixtures were incubated at 37 °C for 30 min, and then 1 mL of Nash solution and […] of CCl3COOH solution were added. After a 10min incubation at 60 °C to allow the formation of the yellow mixture, the absorbance was measured at […].
The results were calculated as performance percentages in relation to the respective standards and blanks according to the following Equation (4):(4) % Scavenging ability= Mean OD(A+B)−Mean OD(C+D)/Mean OD(A+B)

The nature of data set [7]: Inhibition of AAPH induced linoleic acid oxidation (lipid peroxidation). The note with it: 100 μΜ. The text has this:
AAPH induced linoleic acid oxidation has been developed as a quick and reliable antioxidant activity assay. It is based on the inhibition of linoleic acid oxidation, initiated by the thermal free radical producer 2,2′-azobis(2-amidinopropane) dihydrochloride (AAPH), providing a measure of how efficiently antioxidants protect against lipid oxidation in vitro. Oxidation of exogenous linoleic acid by AAPH is followed by UV spectrophotometry at 234 nm in a highly diluted sample [38].
For the reference sample in a UV cuvette, 10 μL of the test sample (100 μM diluted in DMSO), 10 μL linoleic acid (LA) (16 mM), and buffer solution (pH 7.4) were added to a final volume of 1ml. For the measurement sample, in a UV cuvette, 10 μL of test sample, 50 μL AAPH (40 mM), 10 μL LA, and buffer solution were added to a final volume of 1 mL. Standard and blank samples were prepared in the same way using DMSO (solvent) instead of the tested coumarin analogues. The absorbance was measured after 2 min at 37 °C at 234 nm. Results were obtained via the following Equation (5):(5) %Inhibition=(Standard−Blank)−(Reference Sample−Measurement Sample)/(Standard−Blank) × 100

For the molecule `O=C1O[C@H]([C@@H](O)CO)C(O)=C1O` [Ascorbic acid, reference compound], the “ABTS^•+ % (100 μΜ)” value in data set [1] is given as 99.1%. The inhibition at 100 µM in data set [2] amounted to 87%.

In data set [3], `COc1cc(C2Oc3cc([C@H]4Oc5cc(O)cc(O)c5C(=O)[C@@H]4O)ccc3OC2CO)ccc1O` (some centres unmarked) [Silibinin, reference compound] showed a viability at 24 h, 100 μM of 35.7%. Moreover, the cytotoxicity at 100 µM came out at 78.3% in data set [4] and 84.4% in data set [5].

Consider `Cc1c(C)c2c(c(C)c1O)CCC(C)(C(=O)O)O2` (centres unmarked) [Trolox, reference compound], for which the “ABTS^•+ % (100 μΜ)” value in data set [1] stood at 92.0%. Besides, the “HO^• % (100 μΜ) scavenging” value in data set [6] stood at 85.0%. The “AAPH % inhibition (100 μΜ)” value in data set [7] was 92%.

Usually viability stands for a read-out of living cells in per cent, often relative to untreated cells.
